According to publication PMC12111648, “New Dimethoxyaryl-Sesquiterpene Derivatives with Cytotoxic Activity Against MCF-7 Breast Cancer Cells: From Synthesis to Topoisomerase I/II Inhibition and Cell Death Mechanism Studies” (International Journal of Molecular Sciences, 2025):
Entries after “also recorded” stand apart in the source; their conditions may differ.

How the values were obtained:
human topoisomerase I = target: T1, human topoisomerase I (Homo sapiens, UniProt P11387); assay: TOP1 DNA relaxation assay; format: biochemical; settings: 20 μM
T1 construct: purchased Sigma-Aldrich (St. Louis, MO, USA)
T1 sequence (P11387 1-765): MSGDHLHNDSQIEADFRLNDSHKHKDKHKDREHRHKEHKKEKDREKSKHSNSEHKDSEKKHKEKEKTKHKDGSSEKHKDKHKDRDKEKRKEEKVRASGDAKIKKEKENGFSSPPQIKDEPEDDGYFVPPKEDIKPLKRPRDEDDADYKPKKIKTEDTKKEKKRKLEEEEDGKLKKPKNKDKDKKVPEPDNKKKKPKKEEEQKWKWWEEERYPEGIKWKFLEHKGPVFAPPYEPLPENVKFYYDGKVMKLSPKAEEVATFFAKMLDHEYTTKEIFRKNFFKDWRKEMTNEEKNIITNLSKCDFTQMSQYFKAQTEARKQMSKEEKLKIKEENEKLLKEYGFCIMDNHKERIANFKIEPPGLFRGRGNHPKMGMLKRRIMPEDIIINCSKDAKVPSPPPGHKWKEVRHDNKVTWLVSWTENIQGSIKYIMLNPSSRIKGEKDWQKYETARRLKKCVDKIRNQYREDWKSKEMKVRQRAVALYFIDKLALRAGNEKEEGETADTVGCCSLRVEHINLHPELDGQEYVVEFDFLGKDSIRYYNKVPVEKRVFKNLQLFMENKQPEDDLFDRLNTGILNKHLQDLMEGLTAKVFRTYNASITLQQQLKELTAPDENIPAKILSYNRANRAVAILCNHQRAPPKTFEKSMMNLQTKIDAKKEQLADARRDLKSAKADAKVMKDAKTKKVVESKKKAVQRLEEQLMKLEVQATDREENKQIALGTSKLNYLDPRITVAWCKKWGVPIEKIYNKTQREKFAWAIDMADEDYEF
Description: (§1) The ability to relax DNA conformations is a central function of topoisomerase enzymes. Several studies have associated some proapoptotic compounds with the ability to inhibit topoisomerase enzymes. The ability of the selected compounds to inhibit TOP1 or TOP2 activity was determined. In this experiment, daunorubicin was used as a positive control for TOP1/2 inhibition, as previously reported. […] It is important to note the potential for cardiotoxicity associated with some TOP2 inhibitors, which highlights the relevance of assessing compound 14c’s interaction with TOP2B. […] Future studies should include assays to evaluate the specific activity of 14c against both TOP2A and TOP2B to provide a more comprehensive safety profile, as isoform-selective TOP2 inhibitors may offer a therapeutic advantage by reducing adverse effects.
TOP1 activity was assayed by the relaxation of supercoiled DNA (pEGFP-N1) as the manufacturer’s instructions indicated. Briefly, human recombinant TOP1 and buffer assay were obtained from Sigma-Aldrich (St. Louis, MO, USA). […]
(§2) Figure 7 The effect of sesquiterpene aryl esters on TOP1- and TOP2-induced DNA relaxation was assessed. (A) The TOP1 inhibition assay evaluated the compounds (10c, 11c, 12c, 13c, and 14c) at a concentration of 20 μM in a DNA relaxation assay. […]

MCF-7 cells = assay: Mitochondrial membrane potential (rhodamine 123, flow cytometry); format: cell-based, human; settings: MCF-7, compounds at respective IC50, 24 h
Description: To determine whether the toxic effects of selected sesquiterpenes (10c, 11c, 12c, 13c, and 14c) are due to the production of ROS and subsequent apoptosis, the mitochondrial membrane potential was measured. With this aim, a protocol using rhodamine 123 staining and flow cytometry was established to study the effect of the selected compounds [40]. The accumulation of rhodamine 123 in mitochondria is associated with the maintenance of the electrochemical gradient in mitochondria. Daunorubicin was used as a positive control (C+). The results are presented as the percentage of cells with increased mitochondrial membrane permeability.
Rhodamine 123 (Rho123), a positively charged dye that reacts to voltage changes and enters the mitochondria, was utilized to detect modifications in the mitochondrial membrane potential. The cells were exposed to specific compounds (IC50 values for each compound) for 24 h. Control cells that had not been treated were used as negative control, while cells treated with daunorubicin at a concentration of 1 µM served as the positive control. Following this, the cells were incubated with Rho123 (at a concentration of 1 µM) in darkness for an hour at 37 °C. Afterward, the medium was taken out, and the cells were washed with PBS. The cells were then dissociated using trypsin and collected through centrifugation for 10 min at 1500×g. The supernatant was thrown away, and the cell pellets were resuspended in PBS and analyzed using flow cytometry with the FL1 filter. The results are shown as the percentage of Rho123-stained cells.
Figure 5 The effect of the compound’s treatment on mitochondrial membrane potential. […] The data represent the means ± S.D. of at least three experiments with triplicate samples.

human topoisomerase II = assay: TOP2 DNA relaxation / plasmid linearization assay; format: biochemical; settings: 20 μM
Description: as §1
Topoisomerase II-mediated DNA cleavage was assessed using a plasmid linearization assay adapted from previously described methods. Supercoiled plasmid DNA (200 ng final concentration) was incubated with purified human topoisomerase II (10 U) in the presence or absence of test agents or a positive control. Reactions were carried out in a total volume of 20 μL, composed of 2 μL of 10× topoisomerase II reaction buffer, an appropriate volume of compound or control, and nuclease-free water. ATP (final concentration adjusted from a 20 mM stock) was freshly added to the reaction buffer immediately prior to use. Reactions were initiated by the addition of topoisomerase II and incubated at 37 °C for 30 min. To terminate the reactions, 2 μL of 10% SDS was added directly to the tubes while still in the 37 °C water bath, followed by the addition of 1.5 μL of 250 mM tetrasodium EDTA (pH 8.0) and 2 μL of proteinase K solution (0.8 mg/mL). […]
as §2

COc1cc2c(cc1OC)[C@]1(C)CCC3C(C)(C)CCC[C@]3(C)C1=C2 (stereo partly drawn) [Compound 14c, (6aR,11bS)-8,9-Dimethoxy-4,4,6a,11b-tetramethyl-2,3,4,4a,5,6,6a,11b-octahydro-1H-benzo[a]fluorene]
inhibition of TOP1-induced DNA relaxation (human topoisomerase I): did not show significant inhibition | mitochondrial membrane permeability (MCF-7 cells): did not increase | inhibition of TOP2-induced DNA relaxation (human topoisomerase II): selectively inhibited topoisomerase II; also recorded: modified the TOP2-induced DNA relaxation pattern

COc1ccc(/C=C2\C(C)=CCC3C(C)(C)CCC[C@]23C)cc1OC (stereo partly drawn) [Compound 13c, (4aS)-5-((E)-3,4-Dimethoxybenzylidene)-1,1,4a,6-tetramethyl-1,2,3,4,4a,5,8,8a-octahydronaphthalene]
mitochondrial membrane permeability (MCF-7 cells): did not increase | inhibition of TOP2-induced DNA relaxation (human topoisomerase II): no inhibition
